Experiment [1] deals with human hepatocellular carcinoma cells HepG2. The experiment in a line: MTT anti-proliferative assay, HepG2. The following applies: for Experimental pIC50: HepG2. Type of experiment: cell-based. The procedure: (§1) Human breast carcinoma cells MDA-MB-231, human hepatocellular carcinoma cells HepG2, and human lung carcinoma cells A549, were purchased from ATCC, or were gifted by Professor Burton B. Yang from University of Toronto, Canada. The anti-proliferative effect of total extract (GL), fractions (GL1–GL4), and compounds 1–14 on tumor cell lines was evaluated by MTT assay (Franchi et al., [2012]). Total extract (GL) and fractions (GL1–GL4) were evaluated for their anti-proliferative effect on three types of carcinoma cells (MDA-MB-231, HepG2, and A549). Compounds 1–14 were chosen to evaluate for their anti-proliferative effect against MDA-MB-231 and HepG2 cells. Hundred microliters of cells suspension (5 × 10^4 cells/mL) was seeded into wells of a 96-well plate. After being incubated for 4 h, different concentrations of fractions/compounds were added onto the cells and incubated. After 48 h, 150 μL of 3-[4,5-dimethylthiazol-2-yl]-2,5-diphenyl tetrazolium bromide (MTT) solution (Sigma) was added to each well, and cells were kept being incubated for 4 h. After removing the MTT/medium, DMSO (100 μL) of was added to each well and was agitated at 60 rpm for 5 min. The optical density of the assay 96-well plate was read (λ = 540 nm) on a microplate reader.
(§2) IC50-values were calculated and analyzed using SPSS with three replications, each carried out in triplicate. Data were expressed as mean ± SD and analyzed by one-way ANOVA followed by two-tailed Student's t-test. A difference was considered significant at the P < 0.05 or P < 0.01 level.

Experiment [2] has as its system Human breast carcinoma cells MDA-MB-231. The experiment in a line: MTT anti-proliferative assay, MDA-MB-231. In kind it is cell-based. The following applies: mean ± SD. The procedure:
as §1, §2

A further experiment deals with HUVECs. The experiment in a line: Anti-angiogenesis activity, MTT assay on HUVECs. In kind it is cell-based, human. Conditions: for EC50: MTT, 48 h, mean ± SD; for selective inhibition, tumor cells versus HUVECs: comparison of MDA-MB-231/HepG2 and HUVEC values. The procedure: HUVECs (KeyGEN BioTECH Co., Ltd, Jiangsu, China) were cultured in ECM (endothelial cell medium) with 5% (v/v) FBS, 1% (v/v) ECGS, and 1% penicillin-streptomycin (w/v) at 37°C in a cell incubator. The MTT assay was employed to assess the anti-angiogenic effect of the isolated compounds against HUVECs as described previously with mild modification (Liang et al., [2015]; Nguyen et al., [2015]). Briefly, HUVECs were seeded into a 96-well plate and incubated. Different concentrations of compounds 1–14 were added onto the cells after 4 h, and continued to be co-incubated for 48 h. Next, the cells were co-incubated with MTT (Sigma, St. Louis, MO, USA) to a final concentration of 0.05% for another 4 h. Then, replacing the MTT solution with […] DMSO, and kept the plates being shaken for 3 min. The optical density of each well was measured on a microplate reader at λ = 570 nm.
as §2
(Formazan colour is commonly taken as a measure of viable cells.)

For experiment [3], the system named is mouse embryonic fibroblasts (NIH/3T3). The experiment in a line: Cytotoxicity on normal cells NIH/3T3. In kind it is cell-based. The procedure:
Anti-proliferative activity evaluation against two types of human cancer cells (MDA-MB-231 and HepG2), HUVECs and mouse embryonic fibroblasts (NIH/3T3, used as normal cells) were then carried out.

The mark [4] stands for this setting: Homo sapiens, HepG2, 48 h, MTT, 48 h, mean ± SD, read-out: IC50 HepG2.
The mark [5] stands for this setting: Homo sapiens, HepG2, HepG2, converted from observed IC50s (μM), read-out: Experimental pIC50 (converted).
The mark [6] stands for this setting: Mus musculus, NIH3T3, mean ± SD.
Where [7] appears, read: MTT, 48 h, mean ± SD, read-out: IC50 HepG2.
Where [8] appears, read: converted from observed IC50s (μM).

Here are results for 15 compounds from paper PMC5670154, “Anti-tumor and Anti-angiogenic Ergosterols from Ganoderma lucidum” (Frontiers in Chemistry, 2017).

Read-outs that look alike come from different tables or passages of the source. A value given as a limit tells only on which side of the number the result lay.

As to `CO[C@@H]1C=C2[C@@H]3CC[C@H]([C@H](C)/C=C/[C@H](C)C(C)C)[C@@]3(C)CC[C@@H]2[C@@]2(C)CC[C@H](O)[C@H]3O[C@@]312` [Compound 1, (22E)-4α, 5α-epoxy-6β-methoxyergosta-7, 22-diene-3β-ol], the IC50 in experiment [1] (setting [4]) was 138 ± 8.3 µM; in experiment [1] (setting [5]), 138 µM; in experiment [2] (Homo sapiens, MDA-MB-231, 48 h) it was 176 ± 5.1 µM. Besides, the EC50 – broadly, the concentration giving half of the maximal effect – with HUVECs (Homo sapiens, HUVEC) amounted to 144 ± 6.1 µM; in experiment [3] (setting [6]) it was 422 ± 9.3 µM.
In the case of `CC(C)[C@@H](C)/C=C/[C@@H](C)[C@H]1CC[C@H]2C3=C[C@@H](O)[C@@]4(O)C[C@@H](O)CC[C@]4(C)C3=CC[C@]12C` [Compound 2, (3β, 5α, 6β, 22E)-ergosta-7, 9 (11), 22-triene-3,5,6-triol], the IC50 in experiment [1] (setting [4]) was < 100 µM; in experiment [1] (setting [5]), 62.5 µM; in experiment [1] (setting [7]) it was 62.5 ± 1.3 µM; in experiment [2] (48 h), 56.3 ± 1.5 µM; in experiment [2] (Homo sapiens, MDA-MB-231, 48 h), < 100 µM. Also, the half-maximal effective concentration (EC50) with HUVECs (Homo sapiens, HUVEC) is 142 ± 3.6 µM; in experiment [3] (setting [6]), 303 ± 11.9 µM. Moreover, in the experiment on HUVECs, the “selective inhibition, tumor cells versus HUVECs” value is “significant selective inhibition against cancer cells”.
`CC(C)[C@@H](C)/C=C/[C@@H](C)[C@H]1CC[C@H]2C3=C[C@@H](O)[C@@]4(O)C[C@@H](O)CC[C@]4(C)[C@H]3CC[C@]12C` [Compound 4, (3β, 5α, 6β, 22E)-ergosta-7, 22-diene-3,5,6-triol]: the IC50 in experiment [1] (setting [4]) was 175 ± 15.9 µM; in experiment [1] (setting [5]), 175 µM; in experiment [2] (Homo sapiens, MDA-MB-231, 48 h) it was 149 ± 8.7 µM. Further, the EC50 in the experiment with HUVECs (Homo sapiens, HUVEC) is 345 ± 13.7 µM; in experiment [3] (setting [6]) it was > 500 µM.
The like results for `CC(C)[C@@H](C)/C=C/[C@@H](C)[C@H]1CC[C@H]2C3=C[C@H](O)[C@@]4(O)C[C@@H](O)CC[C@]4(C)[C@H]3CC[C@]12C` [Compound 5, (3β, 5α, 6α, 22E)-ergosta-7, 22-diene-3,5,6-triol] were, in that order, 197 ± 20.1 µM, 197 µM, 114 ± 9.9 µM, 206 ± 12.2 µM and > 500 µM.
The matching figures for `CC(C)[C@@H](C)/C=C/[C@@H](C)[C@H]1CC[C@H]2C3=C[C@H](O)[C@@]4(O)C[C@@H](O)CC[C@]4(C)[C@@]3(O)CC[C@]12C` [Compound 6, (3β, 5α, 6α, 9α, 22E)-ergosta-7, 22-diene-3,5,6,9-tetrol]: 185 ± 9.5 µM, 185 µM, 224 ± 10 µM, 384 ± 10.9 µM and > 500 µM.
`CC(C)[C@@H](C)/C=C/[C@@H](C)[C@H]1CC[C@H]2C3=C(CC[C@]12C)[C@@]1(C)CC[C@H](O)C[C@@]12O[C@H]2[C@H]3O` [Compound 9, (3β, 5α, 6α, 7α, 22E)-5,6-epoxy-ergosta-8, 22-diene-3,7-diol]: the “increase of activity compared with compound 2” value in experiment [1] (HepG2 IC50) is reported as “approximately 3 folds”. The IC50 was 22.1 ± 0.9 µM in experiment [1] (setting [4]); 22.1 µM in experiment [1] (setting [5]); 20.3 ± 2.2 µM in experiment [2] (Homo sapiens, MDA-MB-231, 48 h). Also, the concentration giving a half-maximal response (EC50) amounted to 27.9 ± 1.7 µM with HUVECs (Homo sapiens, HUVEC) and 183 ± 10.3 µM in experiment [3] (setting [6]).
In the case of `CC(C)[C@@H](C)/C=C/[C@@H](C)[C@H]1CCC2=C3[C@H](O)[C@@H]4O[C@@]45C[C@@H](O)CC[C@]5(C)[C@H]3CC[C@@]21C` [Compound 10, (3β, 5α, 6α, 7α, 22E)-5,6-epoxy-ergosta-8 (14), 22-diene-3,7-diol], the IC50 was 50.6 ± 5.3 µM in experiment [1] (setting [4]); 50.6 µM in experiment [1] (setting [5]); 46.7 ± 5.4 µM in experiment [2] (Homo sapiens, MDA-MB-231, 48 h). Besides, the EC50 with HUVECs (Homo sapiens, HUVEC) came to 48.7 ± 2.9 µM; in experiment [3] (setting [6]), 194 ± 9.6 µM.
On to `CC(C)[C@@H](C)/C=C/[C@@H](C)[C@H]1CC[C@@H]2[C@]1(C)CC[C@H]1[C@]23C=C[C@]2(C[C@@H](O)CC[C@]12C)OO3` [Compound 11, (3β, 5α, 8α, 22E)-5,8-epidioxy-ergosta-6, 22-dien-3-ol], for which the IC50 in experiment [1] (setting [4]) is 34.8 ± 2.6 µM; in experiment [1] (setting [5]), 34.8 µM; in experiment [2] (Homo sapiens, MDA-MB-231, 48 h), 44.6 ± 1.9 µM. Also, the EC50 was 29.1 ± 3.2 µM with HUVECs (Homo sapiens, HUVEC) and 197 ± 11.3 µM in experiment [3] (setting [6]).
Take `CC(C)[C@@H](C)/C=C/[C@@H](C)[C@H]1CC[C@H]2C3=CC=C4C[C@@H](O)CC[C@]4(C)[C@H]3CC[C@]12C` [Compound 12, (3β, 22E)-ergosta-5,7, 22-trien-3-ol]: the IC50 in experiment [1] (setting [4]) was 75.6 ± 4.7 µM; in experiment [2] (Homo sapiens, MDA-MB-231, 48 h), 69.7 ± 5.8 µM. Besides, the EC50 in the experiment on HUVECs (Homo sapiens, HUVEC) was found to be 72.4 ± 5.6 µM; in experiment [3] (setting [6]), 261 ± 12 µM.
For `CC(C)[C@@H](C)/C=C/[C@@H](C)[C@H]1CC[C@@H]2[C@]1(C)CC=C1[C@]23C=C[C@]2(C[C@@H](O)CC[C@]12C)OO3` [Compound 13, (3β, 5α, 8α, 22E)-5,8-epidioxy-ergosta-6, 9 (11), 22-trien-3-ol], the IC50 in experiment [1] (setting [4]) was 44.5 ± 1.3 µM; in experiment [1] (setting [5]), 44.5 µM; in experiment [2] (Homo sapiens, MDA-MB-231, 48 h), 32.1 ± 3 µM. The 50% effective concentration (EC50) worked out at 51.6 ± 2.8 µM in the experiment with HUVECs (Homo sapiens, HUVEC) and 293 ± 17.2 µM in experiment [3] (setting [6]).
Take `CC(C)[C@@H](C)/C=C/[C@@H](C)[C@H]1CC[C@@]2(O)C3=C(CC[C@]12C)[C@@]1(C)CC[C@H](O)C[C@@]12O[C@H]2C3=O` [Compound 14, (3β, 5α, 6α, 14α, 22E)-3, 14-dihydroxy-5,6-epoxy-ergosta-8, 22-dien-7-one]: the IC50 in experiment [1] (setting [4]) turned out to be 201 ± 6.4 µM; in experiment [2] (Homo sapiens, MDA-MB-231, 48 h), 189 ± 8.1 µM. The EC50 with HUVECs (Homo sapiens, HUVEC) is 321 ± 18.9 µM; in experiment [3] (setting [6]), > 500 µM.
For `O=c1c(O)c(-c2ccc(O)cc2)oc2cc(O)cc(O)c12` [kaempferol, reference compound], the IC50 in experiment [1] (setting [4]) was 45.4 ± 3.4 µM; in experiment [1] (setting [5]), 45.4 µM; in experiment [2] (Homo sapiens, MDA-MB-231, 48 h) it was 56.6 ± 3.1 µM. Further, the concentration for a half-maximal effect (EC50) in the experiment on HUVECs (Homo sapiens, HUVEC) came to 35.5 ± 4.1 µM; in experiment [3] (setting [6]) it was 356 ± 15.9 µM.
For the compound “(3β, 5α, 6β, 9α, 14α, 22E)-ergosta-7, 22-diene-3, 5, 6, 9, 14-pentol [Compound 8]”, in experiment [1] (setting [8]), the “Experimental pIC50” value was 3.543. Further, the “decline of activity in comparison with compound 2” value in experiment [1] (HepG2 IC50) is reported as “approximately 4.6 folds”. Further, the values for the IC50 in experiment [1] (setting [7]) and in experiment [2] (48 h) were 286 ± 18.9 µM and 216 ± 14.3 µM, respectively. For the same compound, the half-maximal effective concentration (EC50) with HUVECs (read-out: EC50 HUVEC) was 357 ± 19.5 µM; in experiment [3] (mean ± SD), > 500 µM.
In the case of “(3β, 5α, 6β, 9α, 22E)-ergosta-7, 22-diene-3, 5, 6, 9-tetrol [Compound 3]”, the “Experimental pIC50” value in experiment [1] (setting [8]) was 3.887. Moreover, the IC50 in experiment [1] (setting [7]) was found to be 130 ± 3.4 µM; in experiment [2] (48 h) it was 148 ± 5.8 µM. The results for the EC50 (in the experiment with HUVECs (read-out: EC50 HUVEC); in experiment [3] (mean ± SD)) were 84 ± 6.7 µM and 365 ± 15.7 µM, respectively. Further, the “selective inhibition, tumor cells versus HUVECs” value in the experiment with HUVECs is “selective inhibition against HUVECs”.
In the case of “(3β, 5α, 6β, 14α, 22E)-ergosta-7, 9 (11), 22-triene-3, 5, 6, 14-tetrol [Compound 7]”, the “Experimental pIC50” value in experiment [1] (setting [8]) is 3.806. Further, the IC50 in experiment [1] (setting [7]) is 156 ± 8.9 µM; in experiment [2] (48 h), 169 ± 11.1 µM. Further, the EC50 with HUVECs (read-out: EC50 HUVEC) is 188 ± 15.3 µM; in experiment [3] (mean ± SD), > 500 µM.
